The series in a line: Moisture sorption/desorption (hygroscopicity). In kind it is physicochemical. On the procedure:
Moisture sorption/desorption data were collected on a VTI SGA-100 Vapor Sorption Analyzer. Sorption and desorption data were collected over a range of 5% to 95% relative humidity (“RH”) at 10% RH intervals under nitrogen purge. Samples were not dried prior to analysis. Equilibrium criteria used for analysis were less than 0.0100% weight change in 5 minutes, with a maximum equilibration time of 3 hours if the weight criterion was not met. Data were not corrected for the initial moisture content of the samples. NaCl and PVP were used as calibration standards. This example illustrates the differential scanning calorimetry (DSC) and hygroscopicity analysis of Form I prepared according to Example 6.

In turn, `O=S(=O)(Nc1cc(Cl)c(Oc2cnc3ccccc3c2)c(Cl)c1)c1ccc(Cl)cc1Cl.O=S(=O)(O)c1ccccc1` [Form I, 2,4-Dichloro-N-[3,5-dichloro-4-(quinolin-3-yloxy)-phenyl]-benzenesulfonamide benzenesulfonate salt] gave a weight loss (moisture desorption, from 95% to 25% relative humidity) of 0.6%. Besides, the weight gain (moisture sorption, from 25% to 95% relative humidity) amounted to 0.6%.

(Values after patent publication US8003665B2, “Salts and polymorphs of a potent antidiabetic compound” (Amgen Inc., priority 2003, dated 2011).)
